The subject of data set [1] is bacteria. Put plainly: Antibacterial activity. The class given is cell-based. As for the experimental part:
(§1) All MIC values are determined by broth microdilution according to the guidelines by the Clinical and Laboratory Standards Institute (CLSI, Wayne Pa., USA). Staphylococcus aureus ATCC29213 is grown on Müller-Hinton agar (MHA) (Becton Dickinson) and then in cation-adjusted Müller Hinton broth (CaMHB) (Becton Dickinson) for 24 h at 37° C. Streptococcus pyogenes ATCC19615 and Moraxella catharrhalis QK34 are grown on MHA with 2.5% Laked Horse Blood (Oxoid). Liquid cultures in CaMHB+5% horse serum (Sigma) are incubated for 24 h at 35° C. in a 5% CO2 atmosphere. Haemophilus. influenzae 3168 is grown on MHA+2.5% Fildes extract (Oxoid). Liquid cultures are grown in CaMHB+5% Fildes extract at 35° C. in a 5% CO2 atmosphere. Propionibacteria are grown on Wilkins-Chalgren agar (WCA) (Oxoid) for 72 h under anaerobic conditions. Liquid cultures are grown anaerobically in Wilkins-Chalgren broth (WCB) (Oxoid) for 48 h at 35° C. MIC values are obtained by broth microdilution using WCB (Anaerobe Broth MIC, Difco). Microtitre plates are loaded into 7-L GENbox anaerobic incubation jars (BioMerieux) fitted with anaerobic atmosphere generators (BioMerieux) and a Dry Anaerobic Indicator Strip (BBL). Under these conditions, an O2 concentration <0.1% is achieved by 2.5 h, and a CO2 concentration >15% by 24 h.

The test system of data set [2] is P. granulosum EG13NS. Nature of the data set: MIC determination by broth microdilution (anaerobic). The class given is cell-based. To be noted: read-out: MIC (μg/ml) P. granulosum EG13NS. As for the experimental part:
as §1

Data set [3] is described as follows: Oral bioavailability, pharmacokinetic study in mice. The class given is in vivo, mouse. The note with it: for bioavailability: in vivo, mouse, 10 mg/kg oral, 1 mg/kg intravenous, dose-normalized AUC, read-out: Oral bioavail. (mouse F %). As for the experimental part: Drug concentrations in blood or plasma are determined as a function of time in pharmacokinetic studies. Mice were treated with the test compound at defined doses. 10 mg/kg is used for oral administration and 1 mg/kg is taken for intravenous administration. Blood or plasma samples are collected at defined time-points and the drug content is determined by LC-MS/MS. The drug concentration is plotted as a function of time and the non-intravenous (oral) and the intravenous area under the curve (AUC) is calculated using the linear trapezoidal rule. The oral bioavailability is then calculated using dose-normalized AUC with the following formula: F[%]=AUCoral/AUCintravenous*100 Blocking of hERG Channel

For data set [4], the target named is hERG channel (Homo sapiens (Human), UniProt Q12809). Nature of the data set: Blocking of hERG channel, whole-cell patch clamp in stably transfected HEK 293 cells. The class given is cell-based. The note with it: for Blocking of hERG @ 1 μM (% remaining tail current) / Blocking of hERG @ 10 μM (% remaining tail current): HEK 293 cells. Background: Block of hERG is tested as a sign of cardiac risk.

Data set [5] has as its system S. aureus ATCC29213. Nature of the data set: MIC determination by broth microdilution. The note with it: Staphylococcus aureus, read-out: MIC (μg/ml) S. aureus ATCC29213. The class given is cell-based. As for the experimental part: as §1
A general note: In broth dilution the organism is exposed to a series of concentrations in liquid medium.

In data set [6] the test system is S. pyogenes ATCC19615. Nature of the data set: MIC determination by broth microdilution. To be noted: Streptococcus pyogenes, read-out: MIC (μg/ml) S. pyogenes ATCC19615. The class given is cell-based. As for the experimental part: as §1
Data set [7] deals with H. influenzae 3168. Nature of the data set: MIC determination by broth microdilution. The class given is cell-based. To be noted: Haemophilus influenzae, read-out: MIC (μg/ml) H. influenzae 3168. As for the experimental part:
as §1

Data set [8] deals with P. acnes EG7NS. Nature of the data set: MIC determination by broth microdilution (anaerobic). The class given is cell-based, Propionibacterium acnes. The note with it: for MIC: Cutibacterium acnes, EG7NS, read-out: MIC (μg/ml) P. acnes EG7NS. As for the experimental part:
as §1

Data set [9] relates to M. catarrhalis QK34. Nature of the data set: MIC determination by broth microdilution. The class given is cell-based, Moraxella catharrhalis. The note with it: Moraxella catarrhalis, read-out: MIC (μg/ml) M. catarrhalis QK34. As for the experimental part:
as §1

Data set [10] deals with PDE4 (U937). Put plainly: PDE4 enzyme inhibition, IMAP fluorescence polarization assay. To be noted: for IC50: PDE4 partially purified from U937 cells. The class given is biochemical, human. As for the experimental part: PDE4 is partially purified from undifferentiated human monocytic cells (U937) according to Thorpy et al. 1992 (J. Pharmacol. Exp. Ther. 263: 1195). Cells are grown in Iscove's modified Dulbecco's medium (GIBCO) with 5% foetal bovine serum (GIBCO) and 100 μg/mL penicillin-streptomycin (GIBCO). Cells are broken by sonication and PDE4 is purified by anion-exchange chromatography on DEAE-Sepharose CL-6B (GE Healthcare). […] In addition, PDE4 preparations are validated by inhibition studies with PDE4-specific and unspecific PDE inhibitors.
PDEs specifically hydrolyze cAMP and/or cGMP and release the product AMP and/or GMP. The potency of PDE inhibition by test compounds is determined with a commercially available in vitro enzymatic assay (IMAP® Fluorescence Polarization assay, Molecular Devices Corp.). Fluorescently labeled cAMP or cGMP is hydrolyzed by PDE preparations and in a second step, binding of labeled product to a large binding partner allows product detection by fluorescence polarization (FP) measurements.
Stock solutions of the test compounds are made in DMSO and diluted in assay buffer (10 mM Tris-HCl, 10 mM MgCl2, 0.1% BSA 0.05% NaN3, pH 7.2) to the desired concentrations. The solutions used in the assay contain the test compound in assay buffer with 2% DMSO. 5 μl of this pre-diluted test compound solution are mixed with 10 μl of substrate (FL-cAMP or FL-cGMP) at concentrations recommended by the manufacturer and with 5 μl of appropriately diluted PDE. 5 μl of reaction buffer with 2% DMSO are used for control reactions. […] After incubation for 90 minutes at room temperature, 60 μl of binding reagent are added as specified by the manufacturer. Binding is allowed to proceed for 30 minutes and fluorescence polarization is measured. Dose dependence of PDE inhibition is measured by assaying dilution series of test compounds. IC50 values are determined from the measured activities by curve fitting.
A general note: Polarisation of emitted light reports the rotation of a fluorescent probe.

The values that follow come from US9738676B2, “Selected macrolides with PDE4-inhibiting activity” (Basilea Pharmaceutica AG, priority 2012, dated 2017).

Values after ≈ are worked out from the molar mass of the structure shown.

Sequence of hERG channel (Q12809 whole entry): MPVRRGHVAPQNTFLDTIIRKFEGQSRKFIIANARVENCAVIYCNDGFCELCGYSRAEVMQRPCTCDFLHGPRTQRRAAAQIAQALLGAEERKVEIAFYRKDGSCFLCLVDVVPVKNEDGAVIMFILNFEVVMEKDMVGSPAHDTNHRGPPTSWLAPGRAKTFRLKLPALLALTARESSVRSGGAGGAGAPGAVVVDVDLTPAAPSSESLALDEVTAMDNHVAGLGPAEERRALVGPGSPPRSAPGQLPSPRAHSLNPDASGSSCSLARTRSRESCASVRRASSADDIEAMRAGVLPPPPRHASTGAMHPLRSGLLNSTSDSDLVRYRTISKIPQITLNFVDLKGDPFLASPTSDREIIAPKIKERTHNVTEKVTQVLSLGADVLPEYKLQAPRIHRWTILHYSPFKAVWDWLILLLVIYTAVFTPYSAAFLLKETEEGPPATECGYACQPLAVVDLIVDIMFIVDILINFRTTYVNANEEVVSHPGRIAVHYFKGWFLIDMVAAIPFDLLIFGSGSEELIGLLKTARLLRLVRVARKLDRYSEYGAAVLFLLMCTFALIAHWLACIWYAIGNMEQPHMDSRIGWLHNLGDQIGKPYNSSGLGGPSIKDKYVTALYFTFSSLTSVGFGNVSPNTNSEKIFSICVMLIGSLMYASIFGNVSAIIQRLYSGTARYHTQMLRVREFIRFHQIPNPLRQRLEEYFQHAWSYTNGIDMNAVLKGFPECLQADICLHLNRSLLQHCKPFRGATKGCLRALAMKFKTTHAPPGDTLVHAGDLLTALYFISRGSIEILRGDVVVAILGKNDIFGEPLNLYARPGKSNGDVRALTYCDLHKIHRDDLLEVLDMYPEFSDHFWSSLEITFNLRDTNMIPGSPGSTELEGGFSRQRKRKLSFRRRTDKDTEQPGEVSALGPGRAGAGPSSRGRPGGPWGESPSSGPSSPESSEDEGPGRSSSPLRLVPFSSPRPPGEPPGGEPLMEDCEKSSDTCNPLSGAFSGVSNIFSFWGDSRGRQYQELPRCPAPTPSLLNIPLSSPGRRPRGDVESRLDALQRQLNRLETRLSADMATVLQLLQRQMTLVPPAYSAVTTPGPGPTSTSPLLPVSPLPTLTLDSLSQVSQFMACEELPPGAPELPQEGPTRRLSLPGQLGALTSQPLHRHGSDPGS

In the case of `CC[C@H]1OC(=O)[C@H](C)[C@@H](O)[C@H](C)[C@@H](O[C@@H]2O[C@H](C)C[C@H](N(C)C(=O)N3CCOCC3)[C@H]2O)[C@](C)(OC)C[C@@H](C)C(=O)[C@H](C)[C@H]2C(SCCN(Cc3c(Cl)cncc3Cl)c3ccc(OC)c(OC4CCCC4)c3)C(=O)O[C@@]21C` (stereo in doubt) [compound of formula (I)], in [1], the “antibacterial activity (in words)” value is given as “strongly reduced”. For the same compound, the MIC in data set [2], in data set [5], in [6], in [7], in [8] and in data set [9] was more than 32 µg/mL each time. Also, the “oral bioavailability (in words)” value in data set [3] is on record as “particularly good”. For the same compound, the bioavailability in data set [3] is 22.8%. Further, the “hERG channel inhibiting activity (in words)” value in data set [4] is on record as “does not inhibit”. In addition, in [4], the “Blocking of hERG @ 1 μM (% remaining tail current)” value came to 99.9%. The “Blocking of hERG @ 10 μM (% remaining tail current)” value in data set [4] was 98%. Moreover, in data set [10], the “PDE4-inhibiting activity (in words)” value is listed as “excellent”. Further, the midpoint of inhibition in data set [10], the IC50, lay at 0.035 µM.

Turning to `CC[C@H]1OC(=O)[C@H](C)[C@@H](O[C@H]2C[C@@](C)(OC)[C@@H](O)[C@H](C)O2)[C@H](C)[C@@H](O[C@@H]2O[C@H](C)C[C@H](N(C)C(=O)N3CCOCC3)[C@H]2O)[C@](C)(OC)C[C@@H](C)C(=O)[C@H](C)[C@H]2[C@H](SCCN(Cc3c(Cl)cncc3Cl)c3ccc(OC)c(OC4CCCC4)c3)C(=O)O[C@@]21C`, the MIC in data set [2], in data set [5], in [6], in data set [7], in [8] and in data set [9] was more than 32 µg/mL each time. For the same compound, the bioavailability in data set [3] is 1.5%. Besides, the “Blocking of hERG @ 1 μM (% remaining tail current)” value in data set [4] worked out at 99.2%. The “Blocking of hERG @ 10 μM (% remaining tail current)” value in data set [4] is 82.9%. In [10], this compound returned an IC50 of 0.043 µM.

On to `CC[C@H]1OC(=O)[C@H](C)[C@@H](O[C@H]2C[C@@](C)(OC)[C@@H](O)[C@H](C)O2)[C@H](C)[C@@H](O[C@@H]2O[C@H](C)C[C@H](N(C)C(C)=O)[C@H]2O)[C@](C)(OC)C[C@@H](C)C(=O)[C@H](C)[C@H]2[C@H](SCCN(Cc3c(Cl)cncc3Cl)c3ccc(OC)c(OC4CCCC4)c3)C(=O)O[C@@]21C` [Example 10 of WO2009/106419], for which the “antibacterial activity (in words)” value in [1] was “strong remaining antibacterial activity against certain types of bacteria”. The MIC is 2 µg/mL (≈ 1.63 µM) in data set [2]; more than 32 µg/mL in data set [5]; 8 µg/mL (≈ 6.53 µM) in data set [6]; 32 µg/mL (≈ 26.1 µM) in [7]; 4 µg/mL (≈ 3.26 µM) in [8]; 8 µg/mL (≈ 6.53 µM) in [9]. Also, the “oral bioavailability (in words)” value in data set [3] is recorded as “particularly good”. In addition, the bioavailability in data set [3] came out at 25.5%. In addition, the “Blocking of hERG @ 1 μM (% remaining tail current)” value in data set [4] was found to be 95.9%. In addition, the “Blocking of hERG @ 10 μM (% remaining tail current)” value in data set [4] amounted to 85.5%. Further, the “PDE4-inhibiting activity (in words)” value in [10] is given as “excellent”. Besides, in data set [10], the IC50 came out at 0.031 µM.

Take `CC[C@H]1OC(=O)[C@H](C)[C@@H](O[C@H]2C[C@@](C)(OC)[C@@H](O)[C@H](C)O2)[C@H](C)[C@@H](O[C@@H]2O[C@H](C)C[C@H](N(C)C(=O)N3CCOCC3)[C@H]2O)[C@](C)(OC)C[C@@H](C)C(=O)[C@H](C)[C@H]2N(CCCOc3cc(C(=O)Nc4c(Cl)cncc4Cl)ccc3OC)C(=O)O[C@]12C` [Example 2 of WO2001/018510]: the “antibacterial activity (in words)” value in [1] is “low against many bacterial strains”. Moreover, the MIC in [2] was more than 32 µg/mL; in data set [5], more than 32 µg/mL; in data set [6], more than 32 µg/mL; in data set [7], more than 32 µg/mL; in [8] it was 2 µg/mL (≈ 1.63 µM); in data set [9], more than 32 µg/mL. The “oral bioavailability (in words)” value in data set [3] is on record as “moderate to good”. In addition, the bioavailability in data set [3] turned out to be 16.2%. Further, the “hERG channel inhibiting activity (in words)” value in [4] is “acceptable”. In addition, the “Blocking of hERG @ 1 μM (% remaining tail current)” value in [4] was found to be 99%. For the same compound, the “Blocking of hERG @ 10 μM (% remaining tail current)” value in [4] is listed as 84%. Moreover, the “activity against certain strains of Propionibacterium acnes (in words)” value in data set [8] is “still very active”. The compound also had an IC50 in data set [10] of 0.876 µM.

Turning to `CC[C@H]1OC(=O)[C@H](C)[C@@H](O)[C@H](C)[C@@H](O[C@@H]2O[C@H](C)C[C@H](N(C)C(=O)N3CCOCC3)[C@H]2O)[C@](C)(OC)C[C@@H](C)C(=O)[C@H](C)[C@H]2[C@H](SCCOc3cc(C(=O)Nc4c(Cl)cncc4Cl)ccc3OC)C(=O)O[C@@]21C`, the MIC in data set [2], in [5], in data set [6], in [7], in [8] and in [9] was more than 32 µg/mL in each case. For the same compound, in data set [3], the bioavailability amounted to 11.5%. Also, in data set [4], the “Blocking of hERG @ 1 μM (% remaining tail current)” value stood at 99.9%. Moreover, the “Blocking of hERG @ 10 μM (% remaining tail current)” value in [4] turned out to be 100%. In addition, half-maximal inhibition in data set [10] (IC50) was put at 0.0001 µM.

Consider `CC[C@H]1OC(=O)[C@H](C)[C@@H](O)[C@H](C)[C@@H](O[C@@H]2O[C@H](C)C[C@H](N(C)C)[C@H]2OC)[C@](C)(OC)C[C@@H](C)C(=O)[C@H](C)[C@H]2[C@H](SCCN(Cc3c(Cl)cncc3Cl)c3ccc(OC)c(OC4CCCC4)c3)C(=O)O[C@@]21C` [Example 9 of WO2009/106419], for which the “antibacterial activity (in words)” value in data set [1] was “antibacterially inactive against many pathogenic types of bacteria”. Besides, the MIC in [2] was 4 µg/mL (≈ 3.8 µM); in data set [5] it was 8 µg/mL (≈ 7.6 µM); in [6], 32 µg/mL (≈ 30.4 µM); in data set [7], more than 32 µg/mL; in [8] it was 4 µg/mL (≈ 3.8 µM); in data set [9], more than 32 µg/mL. In addition, the “oral bioavailability (in words)” value in data set [3] is reported as “moderate”. Besides, the bioavailability in [3] came to 9%. Besides, the “hERG channel inhibiting activity (in words)” value in data set [4] is “rather strong”. Besides, in data set [4], the “Blocking of hERG @ 1 μM (% remaining tail current)” value is reported as 23.7%. For the same compound, the “Blocking of hERG @ 10 μM (% remaining tail current)” value in data set [4] was 3.7%. In addition, the “PDE4-inhibiting activity (in words)” value in data set [10] is reported as “good to moderate”. Also, half-maximal inhibition in data set [10] (IC50) required 0.3 µM.

Broadly, the IC50 is the midpoint of a concentration-inhibition curve. Read a high IC50 as lower potency.
